In ChEMBL document CHEMBL5131397, “Discovery and Optimization of Pyrazole Amides as Inhibitors of ELOVL1” (J Med Chem, 2021):
Activity calls are given as the source filed them. No cut-off for these calls is given here.

Key:
[1] = Toxicity in Sprague-Dawley rat assessed as ocular focal cellular disorganization at 5 mg/kg/day, po administered for 8 weeks by microscopic observation analysis; assay type: organism-based; conditions: in vivo, 1344 h
Mus musculus [2] = assay: Reduction in C22:0/C16:0 LPC level in ABCD1 knock out mouse CNS at 1 to 10 mg/kg, po qd measured after 3 months of dosing by LC-MS/MS analysis; assay type: functional, organism-based; conditions: dose 1-10 mg/kg
[3] = target: T1, Very long chain fatty acid elongase 1 (Homo sapiens, UniProt Q9BW60); assay: Inhibition of ELOVL1 in Het […] 2 patient-derived human lymphocyte assessed as reduction of C26:0 VLCFA synthesis incubated for 48 hrs by cellular assay; assay type: cell-based
T1 sequence (Q9BW60 whole entry): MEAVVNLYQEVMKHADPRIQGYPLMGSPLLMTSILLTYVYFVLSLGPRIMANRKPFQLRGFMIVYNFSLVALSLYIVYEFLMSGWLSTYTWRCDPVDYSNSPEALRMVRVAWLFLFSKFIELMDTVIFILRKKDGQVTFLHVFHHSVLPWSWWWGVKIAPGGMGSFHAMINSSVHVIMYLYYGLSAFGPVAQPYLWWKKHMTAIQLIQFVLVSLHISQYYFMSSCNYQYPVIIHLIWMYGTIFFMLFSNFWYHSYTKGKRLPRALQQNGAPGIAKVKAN

[4] = Toxicity in juvenile Sprague-Dawley rat assessed as clonic convulsions 5 to 75 mg/kg/day, po treatment started from postnatal day 75 to 114 days measured after cessation of dosing; assay type: organism-based; conditions: in vivo, dose lower 5 mg/kg/day, time lower 75 day, dose upper 75 mg/kg/day, time upper 114 day
[5] = Toxicity in ABCD1 knock out mouse assessed as noticeable adverse effects at 8 to 32 mg/kg, po qd treated for 6 months; assay type: organism-based; conditions: in vivo, 4380 h, dose 8-32 mg/kg
[6] = Reduction in C26:0/C16:0 LPC level in ABCD1 knock out mouse CNS at 16 mg/kg, po qd measured after 6 months of dosing by LC-MS/SMS analysis; assay type: functional; design: scale not given: the % may be the effect or the level left; conditions: 4380 h
[7] = Toxicity in Cynomolgus monkey assessed as adverse skin lesions at 20 to 50 mg/kg/day, po administered for 14 days; assay type: organism-based, Macaca fascicularis; conditions: in vivo, 336 h, dose 20-50 mg/kg/day, time 14 day
[8] = Toxicity in Sprague-Dawley rat assessed as adverse effects at 5 to 50 mg/kg/day, po administered for 8 weeks and measured after cessation dosing by long-term safety study; assay type: organism-based; conditions: in vivo, 1344 h, dose 5-50 mg/kg/day
[9] = Half life in Cynomolgus monkey at 1 mg/kg, iv upto 48 hrs by LC/MS/MS analysis; assay type: ADME, organism-based, Macaca fascicularis; conditions: in vivo
[10] = Toxicity in Sprague-Dawley rat assessed as ocular hyperplasia at 5 mg/kg/day, po administered for 8 weeks by microscopic observation analysis; assay type: organism-based; conditions: in vivo, 1344 h
[11] = Reduction of C26:0 /C16:0 LPC level in ABCD1 KO mouse blood at 20 mg/kg, po qd for 8 months by LC-MS/MS analysis relative to control; assay type: functional; design: scale not given: the % may be the effect or the level left; conditions: 5840 h
[12] = Oral bioavailability in Beagle dog at 3 mg/kg upto 24 hrs by LC/MS/MS analysis; assay type: ADME, organism-based, Canis lupus familiaris; conditions: in vivo
[13] = Half life in mouse at 1 mg/kg, iv upto 48 hrs by LC/MS/MS analysis; assay type: ADME, organism-based; conditions: in vivo
[14] = Intrinsic clearance in human hepatocytes assessed per million cells; assay type: ADME, cell-based, Hepatocyte; conditions: read-out: CLH
[15] = Toxicity in Cynomolgus monkey assessed as multifocal gliosis at 20 to 50 mg/kg/day, po administered for 14 days; assay type: organism-based, Macaca fascicularis; conditions: in vivo, 336 h, dose 20-50 mg/kg/day, time 14 day
[16] = Toxicity in juvenile Sprague-Dawley rat assessed as corneal mineralization at 5 to 75 mg/kg/day, po treatment started from postnatal day 18 to 114 days; assay type: organism-based; conditions: in vivo, dose lower 5 mg/kg/day, time lower 18 day, dose upper 75 mg/kg/day, time upper 114 day
[17] = Reduction in C26:0/C16:0 total VLFCA levels in ABCD1 knock out mouse CNS at 10 mg/kg, po qd measured after 2 months of dosing by LC-MS/MS analysis; assay type: functional; design: scale not given: the % may be the effect or the level left; conditions: 1460 h
Mus musculus [18] = assay: Reduction in C26:0/C16:0 LPC level in high fat diet fed ABCD1 knock out mouse blood at 1 to 8 mg/kg, po qd after 7 days of dosing measured on day 14 by LC-MS/MS analysis; assay type: functional, organism-based; conditions: dose 1-8 mg/kg, time 14.0 day
[19] = Reduction in C26:0 LPC level in wild-type C57BL/6 mouse blood at 2 to 32 mg/kg, po qd for 105 days by LC-MS/MS analysis relative to control; assay type: functional; design: scale not given: the % may be the effect or the level left; conditions: dose 2-32 mg/kg, time 105 day
[20] = target: T2, Very long chain fatty acid elongase 7 (Homo sapiens, UniProt A1L3X0); assay: Inhibition of ELOVL7 (unknown origin) using C18-acyl-CoA as substrate by radiometric enzyme assay
T2 sequence (A1L3X0 whole entry): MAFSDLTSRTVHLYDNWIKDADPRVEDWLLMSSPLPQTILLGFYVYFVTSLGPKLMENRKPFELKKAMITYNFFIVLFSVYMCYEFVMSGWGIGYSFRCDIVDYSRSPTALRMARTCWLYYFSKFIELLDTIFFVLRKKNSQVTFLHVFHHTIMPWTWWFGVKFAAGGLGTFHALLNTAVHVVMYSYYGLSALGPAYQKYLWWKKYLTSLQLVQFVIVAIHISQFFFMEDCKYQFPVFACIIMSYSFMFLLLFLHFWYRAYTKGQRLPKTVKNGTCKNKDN

[21] = Reduction in C26:0/C16:0 acyl-carnitine levels in ABCD1 knock out mouse CNS at 8 mg/kg, po qd measured after 28 days of dosing by LC-MS/MS analysis; assay type: functional; design: scale not given: the % may be the effect or the level left; conditions: time 28 day
Fibroblast [22] = assay: Reduction in C26:0/C16:0 lysophosphatidyl choline levels in healthy donor-derived human fibroblast incubated for 48 hrs; assay type: functional, cell-based
Mus musculus [23] = assay: Reduction in C24:0/C16:0 LPC level in ABCD1 knock out mouse CNS at 1 to 10 mg/kg, po qd measured after 3 months of dosing by LC-MS/MS analysis; assay type: functional, organism-based; conditions: dose 1-10 mg/kg
[24] = Toxicity in Cynomolgus monkey assessed as dry and red scaly areas on face at 5 to 50 mg/kg/day, po administered for 14 days by macroscopic observation analysis; assay type: organism-based, Macaca fascicularis; conditions: in vivo, 336 h, dose 5-50 mg/kg/day, time 14 day
[25] = Toxicity in ABCD1 knock out mouse assessed as decrease in body weight at 8 to 32 mg/kg, po qd treated for 6 months; assay type: organism-based; conditions: in vivo, 4380 h, dose 8-32 mg/kg
[26] = Toxicity in Sprague-Dawley rat assessed as ulceration at 5 to 50 mg/kg/day, po administered for 2 to 8 weeks; assay type: organism-based; conditions: in vivo, dose lower 5 mg/kg/day, time lower 2 weeks, dose upper 50 mg/kg/day, time upper 8 weeks
[27] = Toxicity in Sprague-Dawley rat assessed as reversal of lesions at 5 to 50 mg/kg/day, po administered for 8 weeks and measured after cessation dosing; assay type: organism-based; conditions: in vivo, 1344 h, dose 5-50 mg/kg/day
Fibroblast [28] = assay: Reduction in C26:0 lysophosphatidyl choline synthesis in primary human CALD patient-derived fibroblast incubated for 48 hrs; assay type: functional, cell-based; conditions: DDE = dose-dependent effect

IC50 [3]: 9 nM | half-life [9]: 5.4 h | bioavailability [12]: 77% | half-life [13]: 2.9 h | hepatocyte CLint [14]: < 4 µL/min/1e6 cells | IC50 [20]: > 500000 nM
Structure (SMILES): O=C(Nc1ccn(-c2ccnc(F)c2)n1)C1(c2ccccc2F)CC1
Activity [1]: Toxic | Activity (Mus musculus [2]): Active | Activity [4]: Toxic | Activity [5]: Non-Toxic | Activity [6]: 55% | Activity [7]: Toxic | Activity [8]: Non-Toxic | Activity [10]: Toxic | Activity [11]: 68% | Activity [15]: Toxic | Activity [16]: Toxic | Activity [17]: 50% | Activity (Mus musculus [18]): Active | Activity [19]: 67% | Activity [21]: 55% | Activity (Fibroblast [22]): Active | Activity (Mus musculus [23]): Active | Activity [24]: Toxic | Activity [25]: Non-Toxic | Activity [26]: Toxic | Activity [27]: Non-Toxic | Activity (Fibroblast [28]): Dde
